Results reported in patent publication US10550100B2, “5-[3-[piperzin-1-yl]-3-oxo-propyl]-imidazolidine-2,4-dione derivatives as ADAMTS 4 and 5 inhibitors for treating E.G. osteoarthritis” (GALAPAGOS NV, priority 2016, dated 2020).
Like-named read-outs stand apart in the source and are kept apart here.

Experiments:
Format in all cases: biochemical
human ADAMTS6 = human ADAMTS6 (Homo sapiens (Human), UniProt Q9UKP5); experiment: hADAMTS-6 520 MMP FRET substrate XII cleavage assay; details: 37° C. for 2 h, read-out: hADAMTS-6 potency IC50
human ADAMTS6, sequence (Q9UKP5 other isoform, or with tags, fused parts or gaps): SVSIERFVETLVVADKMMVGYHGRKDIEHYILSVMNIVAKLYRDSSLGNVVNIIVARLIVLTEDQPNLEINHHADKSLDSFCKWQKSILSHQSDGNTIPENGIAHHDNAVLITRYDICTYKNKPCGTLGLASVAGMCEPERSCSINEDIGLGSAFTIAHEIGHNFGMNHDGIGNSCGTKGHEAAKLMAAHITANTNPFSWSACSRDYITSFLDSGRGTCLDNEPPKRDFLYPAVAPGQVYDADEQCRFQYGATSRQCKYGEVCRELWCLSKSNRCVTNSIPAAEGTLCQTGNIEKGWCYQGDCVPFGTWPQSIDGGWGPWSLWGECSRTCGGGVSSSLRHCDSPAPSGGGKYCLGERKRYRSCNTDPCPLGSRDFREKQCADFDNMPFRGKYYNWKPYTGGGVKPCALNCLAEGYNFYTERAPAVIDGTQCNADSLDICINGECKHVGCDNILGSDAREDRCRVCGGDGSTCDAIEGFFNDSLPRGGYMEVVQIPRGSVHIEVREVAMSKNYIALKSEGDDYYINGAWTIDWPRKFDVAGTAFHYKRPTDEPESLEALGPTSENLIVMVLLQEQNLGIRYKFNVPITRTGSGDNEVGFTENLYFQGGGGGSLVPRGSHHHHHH
How it was run: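 FRET cleavage of 520 MMP Substrate XII (Arg-Pro-Lys-Pro-Tyr-Ala-Nva-Trp-Met-Lys) by 0.73 nM enzyme in 25 mM Tris pH8.0, 0.05% CHAPS, 2.5 mM CaCl2. Compound dilution series from 20 μM top, 1/5 steps; substrate added from 1 μM stock, 2 h at 37° C. Fluorescence read at exc485/em530 for IC50.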

human TACE = human TACE (Homo sapiens (Human), UniProt P78536); experiment: hTACE 5FAM-[…]-5TAMRA cleavage assay; details: 75 min at room temperature, read-out: hTACE potency IC50
human TACE, sequence (P78536 215-671): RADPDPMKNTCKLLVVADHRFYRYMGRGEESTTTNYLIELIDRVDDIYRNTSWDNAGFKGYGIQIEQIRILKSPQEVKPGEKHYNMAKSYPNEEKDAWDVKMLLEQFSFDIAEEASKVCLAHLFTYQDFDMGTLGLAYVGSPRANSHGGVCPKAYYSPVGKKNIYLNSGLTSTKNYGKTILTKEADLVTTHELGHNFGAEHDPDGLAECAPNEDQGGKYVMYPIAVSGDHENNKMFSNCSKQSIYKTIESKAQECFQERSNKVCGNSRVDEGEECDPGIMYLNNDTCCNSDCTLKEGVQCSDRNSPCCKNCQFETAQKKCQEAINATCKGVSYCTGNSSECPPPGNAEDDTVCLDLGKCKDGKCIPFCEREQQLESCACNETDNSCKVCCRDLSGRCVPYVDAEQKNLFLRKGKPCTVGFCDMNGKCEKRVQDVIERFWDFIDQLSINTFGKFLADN
Description: Finally, the fluorescence is read on the Envision (Perkin Elmer) after an incubation of 75 min at room temperature (Excitation 485 nm, Emission 530).

human MMP13 = human MMP13 (Homo sapiens (Human), UniProt P45452); experiment: hMMP13 390 MMP FRET Substrate I cleavage assay, Protocol 1; details: Protocol 1, 390 MMP FRET Substrate I; read-out: hMMP-13 potency IC50
Description: The basis for the assay is the cleavage of the substrate 390 MMP FRET Substrate I (Anaspec Cat# AS-27076) by human MMP13 (Chemicon, Cat#CC068).
Human MMP13 is preactivated by incubated the enzyme in the same buffer complemented with 1 mM freshly prepared p-Aminophenylmercuric acetate (AMPA) for 1 h at 37° C.
The reaction is initiated by adding to the assay plate 390 MMP FRET Substrate I (10 μL, 2.5 μM) in the same buffer.
Finally, the fluorescence is read on the Envision (Perkin Elmer) after an incubation of 45 min at room temperature (Excitation 485 nm, Emission 530).

human ADAMTS-5 [1] = target: T1, human ADAMTS-5 (Homo sapiens (Human), UniProt Q9UNA0); experiment: hADAMTS-5 TBIS-1 cleavage assay, Protocol 2; details: Protocol 2, TBIS-1 substrate, 45 min at 37° C.; read-out: hADAMTS-5 potency IC50
T1 sequence (Q9UNA0 262-930): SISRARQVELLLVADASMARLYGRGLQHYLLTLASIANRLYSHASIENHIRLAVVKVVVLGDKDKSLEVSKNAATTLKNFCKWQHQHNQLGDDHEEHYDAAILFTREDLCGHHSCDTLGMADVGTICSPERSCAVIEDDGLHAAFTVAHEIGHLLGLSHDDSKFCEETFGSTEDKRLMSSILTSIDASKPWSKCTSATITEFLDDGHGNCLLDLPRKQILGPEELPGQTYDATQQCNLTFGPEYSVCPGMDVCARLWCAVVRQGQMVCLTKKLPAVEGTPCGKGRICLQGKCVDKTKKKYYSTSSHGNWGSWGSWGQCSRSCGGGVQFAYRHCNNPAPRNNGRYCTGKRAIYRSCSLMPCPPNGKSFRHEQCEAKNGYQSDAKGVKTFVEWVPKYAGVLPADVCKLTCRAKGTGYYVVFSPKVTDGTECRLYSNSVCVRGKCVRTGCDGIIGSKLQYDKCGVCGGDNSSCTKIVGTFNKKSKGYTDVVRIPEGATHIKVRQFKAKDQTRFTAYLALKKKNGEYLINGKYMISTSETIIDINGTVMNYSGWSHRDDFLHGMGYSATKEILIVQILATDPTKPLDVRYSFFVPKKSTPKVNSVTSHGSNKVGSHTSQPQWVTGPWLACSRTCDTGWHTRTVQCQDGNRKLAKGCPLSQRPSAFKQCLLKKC
Description: The basis for the assay is the cleavage of the substrate TBIS-1 (5 FAM-[…] (5TAMRA)K-NH2) (SEQ ID NO: 2) by human ADAMTS-5.
(§1) The reaction is initiated by adding to the assay plate TBIS-1 (10 μL, 4.5 μM, Anaspec) in the same buffer.
Finally, the fluorescence is read on the Envision (Perkin Elmer) after an incubation of 45 min at 37° C. (Excitation 485 nm, emission 530).

rnADAMTS-5 (1-564-6H) = rnADAMTS-5 (1-564-6H) (Rattus norvegicus (Rat), UniProt Q6TY19); experiment: Rat ADAMTS-5 TBIS-1 substrate cleavage assay; details: rnADAMTS-5, TBIS-1 substrate, 120 min at 37° C.; read-out: Rat ADAMTS-5 potency IC50
rnADAMTS-5 (1-564-6H), sequence (Q6TY19 entry or part of it): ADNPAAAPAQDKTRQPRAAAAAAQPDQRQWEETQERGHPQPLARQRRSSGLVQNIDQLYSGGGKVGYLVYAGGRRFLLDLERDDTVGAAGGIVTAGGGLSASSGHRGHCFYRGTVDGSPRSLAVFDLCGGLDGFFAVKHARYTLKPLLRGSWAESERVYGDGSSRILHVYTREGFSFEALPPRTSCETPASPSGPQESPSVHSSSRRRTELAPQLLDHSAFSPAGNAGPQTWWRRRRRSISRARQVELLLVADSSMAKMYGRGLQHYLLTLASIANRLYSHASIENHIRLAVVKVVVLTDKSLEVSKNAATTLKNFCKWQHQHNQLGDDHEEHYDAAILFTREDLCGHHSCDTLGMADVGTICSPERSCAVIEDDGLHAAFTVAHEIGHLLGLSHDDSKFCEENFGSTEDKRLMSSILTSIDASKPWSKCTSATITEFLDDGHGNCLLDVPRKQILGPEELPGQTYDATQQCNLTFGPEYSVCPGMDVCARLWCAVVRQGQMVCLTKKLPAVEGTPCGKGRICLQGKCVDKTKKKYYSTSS
Description: The basis for the assay is the cleavage of the substrate TBIS-1 (5 FAM-[…] (5TAMRA)K-NH2) (SEQ ID NO: 2) by rnADAMTS-5 (1-564-6H).
as §1
Finally, the fluorescence is read on the Envision (Perkin Elmer) after an incubation of 120 min at 37° C. (Excitation 485 nm, emission 535).

human ADAMTS-5 [2] = target: T1, human ADAMTS-5; experiment: hADAMTS-5 TBIS-1 cleavage assay, Protocol 3; details: Protocol 3, TBIS-1 substrate, 90 min at 37° C.; read-out: hADAMTS-5 potency IC50
Description: as §1
Finally, the fluorescence is read on the Envision (Perkin Elmer) after an incubation of 90 min at 37° C. (Excitation 485 nm, emission 530).

Row | IC50 (human ADAMTS6) [nM] | IC50 (human TACE; 5FAM-LAQAVRSSSRK-5TAMRA) [nM] | IC50 (human MMP13) [nM] | IC50 (human ADAMTS-5 [1]) [nM] | IC50 (rnADAMTS-5 (1-564-6H)) [nM] | IC50 (human TACE; 5FAM-[…]-5TAMRA) [nM] | IC50 (human ADAMTS-5 [2]) [nM] | SMILES
1 | 50 to 100 | > 100 | > 100 | > 100 |  |  |  | CC1(CCC(=O)N2CCC(c3ccc(Cl)cc3)CC2)NC(=O)NC1=O (centres unmarked) [Cpd 12, 5-(3-(4-(4-chlorophenyl)piperidin-1-yl)-3-oxopropyl)-5-methyl-imidazolidine-2,4-dione]
2 | > 100 |  |  | > 100 |  |  |  | CC1(CCC(=O)N2CCC(c3cccc(F)c3)CC2)NC(=O)NC1=O (centres unmarked) [Cpd 13, 5-(3-(4-(3-fluorophenyl)piperidin-1-yl)-3-oxopropyl)-5-methyl-imidazolidine-2,4-dione]
3 | > 100 | > 100 | > 100 | 50 to 100 | 50 to 100 |  |  | O=C1NC(=O)C(CCC(=O)N2CCC(c3ccccc3)CC2)(c2cccnc2)N1 (centres unmarked) [Cpd 16, 5-(3-oxo-3-(4-phenyl-piperidin-1-yl)propyl)-5-(pyridin-3-yl)imidazolidine-2,4-dione]
4 | > 100 |  |  | > 100 |  |  |  | O=C1NC(=O)[C@H](CCC(=O)N2CCC(c3ccccc3)CC2)N1 [Cpd 1, (S)-5-[(3-oxo-3-((4S)-phenylpiperidin-1-yl)propyl]) imidazolidine-2,4-dione]
5 | > 100 |  |  | > 100 |  |  |  | COc1ccccc1C1CCN(C(=O)CCC2(C)NC(=O)NC2=O)CC1 (centres unmarked) [Cpd 6, 5-(3-(4-(2-methoxyphenyl)piperidin-1-yl)-3-oxopropyl)-5-methyl-imidazolidine-2,4-dione]
6 | 25 to 50 | > 100 | > 100 | 50 to 100 | > 100 |  |  | CC1(CCC(=O)N2CCC(c3cc(Cl)cc(Cl)c3)CC2)NC(=O)NC1=O (centres unmarked) [Cpd 9, 5-(3-(4-(3,5-dichlorophenyl)piperidin-1-yl)-3-oxopropyl)-5-methyl-imidazolidine-2,4-dione]
7 | > 100 |  |  | > 100 |  |  |  | Cc1ccc(C2CCN(C(=O)CCC3(C)NC(=O)NC3=O)CC2)cc1 (centres unmarked) [Cpd 8, 5-methyl-5-(3-oxo-3-(4-p-tolylpiperidin-1-yl)propyl) imidazolidine-2,4-dione]
8 | 0.001 to 25 |  | > 100 |  | 25 to 50 | 50 to 100 | 25 to 50 | C[C@@H](C[C@@]1(C)NC(=O)NC1=O)C(=O)N1CCC(c2cc(Cl)cc(Cl)c2)CC1 (stereo in doubt) [Cpd 25, 5-(3-(4-(3,5-dichlorophenyl)piperidin-1-yl)-2-methyl-3-oxopropyl)-5-methyl-imidazolidine-2,4-dione]
9 | > 100 | > 100 |  | > 100 |  |  |  | O=C1NC(=O)C(CCC(=O)N2CCC(c3ccccc3)CC2)N1 (centres unmarked) [Cpd 2, 5-[3-oxo-3-(4-phenyl-1-piperidyl)propyl] imidazolidine-2,4-dione]
10 | 50 to 100 | > 100 | > 100 | > 100 |  |  |  | CC1(CCC(=O)N2CCC(c3cccc(Cl)c3)CC2)NC(=O)NC1=O (centres unmarked) [Cpd 11, 5-(3-(4-(3-chlorophenyl)piperidin-1-yl)-3-oxopropyl)-5-methyl-imidazolidine-2,4-dione]
11 | > 100 | > 100 | > 100 |  | 25 to 50 |  | 25 to 50 | O=C1NC(=O)C(CCC(=O)N2CCC(c3cccc(F)c3)CC2)(C2CC2)N1 (centres unmarked) [Cpd 19, 5-cyclopropyl-5-(3-(4-(3-fluorophenyl)piperidin-1-yl)-3-oxopropyl) imidazolidine-2,4-dione]
12 | 25 to 50 |  | > 100 |  | 0.001 to 25 | 50 to 100 | 25 to 50 | C[C@@H](C[C@@]1(C)NC(=O)NC1=O)C(=O)N1CCC(c2cccc(Cl)c2)CC1 (stereo in doubt) [Cpd 29, 5-(3-(4-(3-chlorophenyl)piperidin-1-yl)-2-methyl-3-oxopropyl)-5-methyl-imidazolidine-2,4-dione]
13 | 25 to 50 |  | > 100 |  | 25 to 50 | 50 to 100 | 25 to 50 | Cc1cccc(C2CCN(C(=O)[C@@H](C)C[C@@]3(C)NC(=O)NC3=O)CC2)c1 (stereo in doubt) [Cpd 27, 5-methyl-5-(2-methyl-3-oxo-3-(4-m-tolylpiperidin-yl)propyl) imidazolidine-2,4-dione]
14 | > 100 |  |  | > 100 |  |  |  | CC1(CCC(=O)N2CCC(c3ccccc3F)CC2)NC(=O)NC1=O (centres unmarked) [Cpd 14, 5-(3-(4-(2-fluorophenyl)piperidin-1-yl)-3-oxopropyl)-5-methyl-imidazolidine-2,4-dione]
15 | 25 to 50 | > 100 | > 100 |  | 50 to 100 |  | 50 to 100 | C[C@@H](C[C@@]1(C)NC(=O)NC1=O)C(=O)N1CCC(c2ccc(F)cc2)CC1 (stereo in doubt) [Cpd 26, 5-(3-(4-(4-fluorophenyl)piperidin-1-yl)-2-methyl-3-oxopropyl)-5-methyl-imidazolidine-2,4-dione]
16 | 50 to 100 | > 100 | > 100 |  | 50 to 100 |  | 50 to 100 | O=C1NC(=O)C(CCC(=O)N2CCC(c3cc(Cl)cc(Cl)c3)CC2)(C2CC2)N1 (centres unmarked) [Cpd 17, 5-cyclopropyl-5-(3-(4-(3,5-dichlorophenyl)piperidin-1-yl)-3-oxopropyl) imidazolidine-2,4-dione]
17 | > 100 | > 100 | > 100 |  | 50 to 100 |  | 50 to 100 | C[C@@H](C[C@@]1(C2CC2)NC(=O)NC1=O)C(=O)N1CCC(c2ccccc2)CC1 [Cpd 20]
18 | > 100 | > 100 | > 100 | > 100 |  |  |  | CC1(CCC(=O)N2CCC(c3ccc(F)cc3)CC2)NC(=O)NC1=O (centres unmarked) [Cpd 10, 5-(3-(4-(4-fluorophenyl)piperidin-1-yl)-3-oxopropyl)-5-methyl-imidazolidine-2,4-dione]
19 | > 100 |  |  | > 100 |  |  |  | Cc1cccc(C2CCN(C(=O)CCC3(C)NC(=O)NC3=O)CC2)c1 (centres unmarked) [Cpd 15, 5-methyl-5-(3-oxo-3-(4-m-tolylpiperidin-1-yl)propyl) imidazolidine-2,4-dione]
20 | > 100 | > 100 |  | 50 to 100 |  |  |  | CC(C)C1(CCC(=O)N2CCC(c3ccccc3)CC2)NC(=O)NC1=O (centres unmarked) [Cpd 5, 5-isopropyl-5-(3-oxo-3-(4-phenylpiperidin-1-yl)propyl) imidazolidine-2,4-dione]
21 | > 100 | > 100 |  | > 100 |  |  |  | CC1(CCC(=O)N2CCC(c3ccccc3)CC2)NC(=O)NC1=O (centres unmarked) [Cpd 4, 5-methyl-5-(3-oxo-3-(4-phenylpiperidin-1-yl)propyl) imidazolidine-2,4-dione]
22 | 50 to 100 | > 100 | > 100 |  | 50 to 100 |  | 50 to 100 | C[C@@H](C[C@@]1(C)NC(=O)NC1=O)C(=O)N1CCC(c2ccccc2)CC1 [Cpd 23, (R)-5-methyl-5-((S)-2-methyl-3-oxo-3-(4-phenylpiperidin-1-yl)propyl) imidazolidine-2,4-dione]
23 | > 100 | > 100 | > 100 | 50 to 100 | 50 to 100 |  |  | O=C1NC(=O)C(CCC(=O)N2CCC(c3ccccc3)CC2)(C2CC2)N1 (centres unmarked) [Cpd 7, 5-cyclopropyl-5-(3-oxo-3-(4-phenylpiperidin-1-yl)propyl) imidazolidine-2,4-dione]
24 | > 100 | > 100 |  | 50 to 100 | 50 to 100 |  |  | O=C1NC(=O)C(CCC(=O)N2CCC(c3ccccc3)CC2)(c2ccccc2)N1 (centres unmarked) [Cpd 3, 5-(3-oxo-3-(4-phenylpiperidin-1-yl)propyl)-5-phenyl imidazolidine-2,4-dione]
